Experiments:
[1] = test system: U87 glioblastoma cells; assay: Annexin V-APC/PI apoptosis assay, U87; format: cell-based, human; conditions: for U87 Q4-2 (right upper quadrant, late apoptotic cells): 24 h, control 5.9%
Method: To evaluate which form of cell death was induced by compound 12 in glioblastoma cells, its ability to stimulate apoptosis, necrosis or autophagy was examined.
To quantify the percentage of cells undergoing apoptosis, glioblastoma U87 and U118 cells were seeded in 6-well plates at 2.8 × 10^5 cells/well in complete growth medium and incubated at standard conditions overnight followed by treatment with 12 at 4 µM for 24 h. Thereafter, the cells were harvested by trypsinization (TrypLE Express (Gibco, USA)) and centrifugation at 400 g for 5 min, washed with PBS and stained with 5 µL of Annexin V-APC (Sony Biotechnology Inc., San Jose, CA, USA) and 10 µL of propidium iodide (PI) (Invitrogen, Waltham, MA, USA) for 15 min at room temperature in the dark. After the incubation time, the cells were analyzed using a NovoCyte Flow Cytometer (ACEA Biosciences Inc., San Diego, CA, USA). For each sample, 10,000 events were acquired.

[2] = test system: U118 cells; assay: Scratch assay (2D migration); format: cell-based, human; conditions: U118, 12 at 100 nM, 48 h
Method: To evaluate the ability of tryptamide 12 to suppress the migration potential of glioblastoma cells, two independent approaches were undertaken, including assessment of cell movement on a 2D surface (scratch assay) and through a trans-well membrane (CIM-Plate).
To assess the 2D motility of glioblastoma cells, U118 cells were seeded in triplicate in 6-well plates at a density of 8 × 10^5 cells/well and cultured to 80% confluence. Thereafter, the cell monolayers were scratched with 10 µL pipette tips and washed twice with PBS to remove floating cells and cell debris and treated with 12 at 100 nM for 48 h. At 0 h and 48 h, the scratched cell monolayers were imaged using a Primo Vert microscope with phase contrast optics (ZEISS, Oberkochen, Germany) equipped with a AxioCam ERc5s camera (ZEISS, Oberkochen, Germany). The wound closure rate was calculated using ImageJ software. In total, 4–5 regions on a single scratch were analyzed.

[3] = test system: U118 cells; assay: Autophagy, MDC staining, U118; format: cell-based, human; conditions: 24 h
Method: Given that pentacyclic triterpenoids can induce tumor cell death not only by the apoptotic pathway but also by triggering autophagy, we next studied whether 12 stimulated autophagy in glioblastoma cells. For this, U87 and U118 cells were incubated with tryptamide 12 at toxic concentrations (2 or 4 µM) for 24 h followed by cell staining with monodansylcadaverine (MDC), a fluorescent dye specifically labeling autophagosomes. […] Considering that autophagy can be associated not only with cell death but also with cytoprotection, its role in the cytotoxicity of 12 in glioblastoma cells was further studied.
To evaluate the ability of 12 to induce autophagy, U87 and U118 cells were seeded at 2.8 × 10^5 cells/well in 6-well plates and incubated under standard conditions overnight followed by their treatment with 12 in amounts of 2 and 4 μM for 24 h. Then, the cells were collected and washed with PBS as described above and resuspended in 500 µL of PBS containing monodancylcadaverine (MDC) at 50 μM. After incubation for 15 min under standard conditions, the cells were washed with PBS and analyzed by flow cytometry. For each sample, 10,000 events were acquired.

[4] = test system: U87 glioblastoma; assay: Subcutaneous U87 glioblastoma xenograft model; format: in vivo, Balb/C nude mice
Method: Given the high antitumor potential of 12 with respect to glioblastoma cells observed in vitro, we further questioned whether the investigated triterpenoid suppresses the growth of glioblastoma in a murine model. To understand this, 12 was intraperitoneally injected as a solution in 10% Tween-80 at a dosage of 20 mg/kg into nude mice bearing subcutaneously implanted human U87 glioblastomas (the experimental setup is presented in Figure 8A). […] Analysis of tumor weights also confirmed the high antitumor activity of 12, which decreased this parameter by 2.1- and 3.4-fold compared to the untreated and vehicle-treated groups, respectively (Figure 8D).
A xenograft model of tumor progression was induced by subcutaneous (s.c.) injection of U87 glioblastoma cells (2 × 10^7 cells/mL) suspended in 0.1 mL of saline buffer with 0.05 mL of Matrigel® Matrix (Corning, NY, USA) into the left flank of Balb/C nude mice. On day 5 after tumor transplantation, the mice were divided into three groups (n = 6 per group): (1) mice without treatment (control); (2) mice that received intraperitoneal (i.p.) injections of 10% Tween-80 (vehicle); and (3) mice that received i.p. injections of 12 in 10% Tween-80 at a dose of 20 mg/kg. The treatment was carried out thrice per week. The total number of injections was seven. During the experiment, the tumor volumes were determined three times a week using caliper measurements and were calculated as V= (D × d^2)/2, where D is the longest diameter of the tumor node and d is the shortest diameter of the tumor node perpendicular to D. The mice were sacrificed on day 21 after tumor transplantation and the tumors and brains were collected for subsequent histological and pharmacological analysis.
For the histological study, the tumor specimens were fixed in 10% neutral-buffered formalin (BioVitrum, St. Petersburg, Russia), dehydrated in ascending ethanols and xylols and embedded in HISTOMIX paraffin (BioVitrum, St. Petersburg, Russia). The paraffin sections (5 μm) were sliced on a Microm HM 355S microtome (Thermo Fisher Scientific, Waltham, MA, USA) and stained with hematoxylin and eosin. Extracellular matrix deposition was determined using Masson’s trichrome staining.
For the immunohistochemical study, the tumor sections (3–4 μm) were deparaffinized and rehydrated. Antigen retrieval was carried out after exposure in a microwave oven at 700 W. The samples were incubated with anti-Ki-67 (ab16667, Abcam, Boston, MA, USA), anti-α-SMA (ab5694, Abcam, USA) or anti-CD31 (ab182981, Abcam, USA) primary antibodies according to the manufacturer’s protocol. Then, the sections were incubated with secondary horseradish peroxidase (HPR)-conjugated antibodies, exposed to the 3,3′-diaminobenzidine (DAB) substrate (Rabbit Specific HRP/DAB (ABC) Detection IHC Kit, ab 64261, Abcam, USA) and stained with Mayer’s hematoxylin.
Morphometric analysis of tumor sections included evaluation of the numerical density (Nv) of mitoses and Ki-67-positive cells in a square unit of tumor tissue—3.2 × 10^6 μm^2 in this case. At least ten random fields from the tumor specimens of six mice in each group (60 testing fields in total) were studied.

[5] = 20 mg/kg i.p., seven injections
[6] = 20 mg/kg i.p., seven injections, day 21

SMILES: CC1(C)C(=O)C(C#N)=C[C@]2(C)C3=CC(=O)[C@@H]4[C@@H]5C[C@@](C)(C(=O)NCCc6c[nH]c7ccccc67)CC[C@]5(C)CC[C@@]4(C)[C@]3(C)CC[C@@H]12 [compound 12]
- U87 Q4-2 (right upper quadrant, late apoptotic cells) ([1]; 12 at 2 µM): 28%
- U87 Q4-2 (right upper quadrant, late apoptotic cells) ([1]; 12 at 4 µM): 73.4%
- necrotic cell death (left upper quadrant) ([1]; U87, 12 for 24 h): did not cause necrotic cell death
- inhibition of 2D migration compared to the control [2]: two times
- MDC-positive cells, U118 ([3]; 12 at 2 µM): 8.55%
- MDC-positive cells, U118 ([3]; 12 at 4 µM): 8.02%
- decrease in tumor weight compared to the untreated group [4, 5]: 2.1 fold
- decrease in tumor weight compared to the vehicle-treated group [4, 5]: 3.4 fold
- decrease in tumor volume compared to the control [4, 6]: 3 fold
- decrease in tumor volume compared to the vehicle-treated group [4, 6]: 4.4 fold
- decrease in numerical density of Ki-67-positive cells compared to the untreated control group ([4]; 20 mg/kg i.p., tumor tissue): 3.5 fold
- decrease in numerical density of Ki-67-positive cells compared with vehicle-treated animals ([4]; 20 mg/kg i.p., tumor tissue): 2.4 fold
- decrease in numerical density of mitotic cells (Nv) compared to the untreated control group ([4]; 20 mg/kg i.p., tumor tissue): 3.4 fold
- decrease in numerical density of mitotic cells (Nv) compared with vehicle-treated animals ([4]; 20 mg/kg i.p., tumor tissue): 4 fold
- collagen fiber content in tumor tissue ([4]; Masson's trichrome, versus untreated and vehicle-treated mice): decreased the collagen fiber content
- expression of CD31 and α-SMA in tumor tissue ([4]; immunohistochemistry, versus control and vehicle-treated mice): increased the expression of both CD31 and α-SMA

Reference: publication PMC9145754, “Novel Soloxolone Amides as Potent Anti-Glioblastoma Candidates: Design, Synthesis, In Silico Analysis and Biological Activities In Vitro and In Vivo” (Pharmaceuticals, 2022)
